Measured values as given in PubChem BioAssay AID248 (DTP/NCI, 2004).
Toxic doses and inconclusive results are not listed. No stated cut-off is given here; in the data, active means T/C of 150% or more; inactive means T/C below 125%.

Tested on: L1210 leukemia ip in BDF1 mice, survival T/C
Assay: NCI In Vivo Anticancer Drug Screen. Data for tumor model L1210 Leukemia (intraperitoneal) in B6D2F1 (BDF1) mice
Details: endpoint: mean survival time, higher = longer survival
Method in brief: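 Value reflects the ratio of survival in compound-treated mice to survival in vehicle-treated controls, with both groups carrying the same transplanted tumor.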

[1] = dose: 100.0 mg/kg/injection, schedule: Q01DX001 (ip), vehicle: carboxymethylcellulose (CMC)
[2] = dose: 200.0 mg/kg/injection, schedule: Q01DX001 (ip), vehicle: carboxymethylcellulose (CMC)
[3] = dose: 400.0 mg/kg/injection, schedule: Q01DX001 (ip), vehicle: carboxymethylcellulose (CMC)
[4] = dose: 100.0 mg/kg/injection, schedule: Q01DX009 (ip), vehicle: saline with Tween-80
[5] = dose: 200.0 mg/kg/injection, schedule: Q01DX009 (ip), vehicle: saline with Tween-80
[6] = dose: 100.0 mg/kg/injection, schedule: Q04DX002 (ip), vehicle: Klucel (hydroxypropylcellulose) (HPC)
[7] = dose: 200.0 mg/kg/injection, schedule: Q04DX002 (ip), vehicle: Klucel (hydroxypropylcellulose) (HPC)
[8] = dose: 400.0 mg/kg/injection, schedule: Q04DX002 (ip), vehicle: Klucel (hydroxypropylcellulose) (HPC)
[9] = dose: 100.0 mg/kg/injection, schedule: Q04DX003 (ip), vehicle: saline with Tween-80
[10] = dose: 200.0 mg/kg/injection, schedule: Q04DX003 (ip), vehicle: saline with Tween-80
[11] = dose: 400.0 mg/kg/injection, schedule: Q01DX009 (ip), vehicle: saline with Tween-80
[12] = dose: 400.0 mg/kg/injection, schedule: Q04DX003 (ip), vehicle: saline with Tween-80

Measured: T/C

OCCN1CC1
inactive: dose: 1.0 mg/kg/injection, schedule: Q01DX009 (ip), vehicle: saline 92 % of control | dose: 1.56 mg/kg/injection, schedule: Q01DX009 (ip), vehicle: saline 100 % of control | dose: 2.3 mg/kg/injection, schedule: Q01DX009 (ip), vehicle: saline 96 % of control | dose: 3.12 mg/kg/injection, schedule: Q01DX009 (ip), vehicle: saline 120 % of control | dose: 6.25 mg/kg/injection, schedule: Q01DX009 (ip), vehicle: saline 94 % of control

NC(=O)Nc1ccc2c(c1)Cc1ccccc1-2
inactive: dose: 50.0 mg/kg/injection, schedule: Q01DX001 (ip), vehicle: carboxymethylcellulose (CMC) 100 % of control | [1] 96 % of control | [2] 100 % of control | [3] 102 % of control

CNCC1C=CCCC1 (stereo unspecified)
inactive: dose: 100.0 mg/kg/injection, schedule: Q04DX002 (ip), vehicle: saline 93 % of control | dose: 200.0 mg/kg/injection, schedule: Q04DX002 (ip), vehicle: saline 100 % of control

COC(=O)CCC(C)C1CCC2C3CCC4CC(OC(=O)c5ccccc5)CCC4(C)C3CC(=O)C12C (stereo unspecified)
inactive: dose: 100.0 mg/kg/injection, schedule: Q01DX001 (sc), vehicle: steriod suspending solution 102 % of control | dose: 100.0 mg/kg/injection, schedule: Q01DX009 (sc), vehicle: steriod suspending solution 93 % of control | dose: 200.0 mg/kg/injection, schedule: Q01DX001 (sc), vehicle: steriod suspending solution 106 % of control | dose: 200.0 mg/kg/injection, schedule: Q01DX009 (sc), vehicle: steriod suspending solution 98 % of control | dose: 400.0 mg/kg/injection, schedule: Q01DX001 (sc), vehicle: steriod suspending solution 104 % of control | dose: 400.0 mg/kg/injection, schedule: Q01DX009 (sc), vehicle: steriod suspending solution 99 % of control

NC(=O)C1C(=O)OC2(CC2)C1c1ccccc1 (stereo unspecified)
inactive: dose: 100.0 mg/kg/injection, schedule: Q01DX001 (ip), vehicle: saline 86 % of control | dose: 200.0 mg/kg/injection, schedule: Q01DX001 (ip), vehicle: saline 93 % of control

CCCCNc1nc2ccccc2[nH]1
inactive: dose: 5.0 mg/kg/injection, schedule: Q01DX009 (ip), vehicle: acetone 98 % of control | dose: 10.0 mg/kg/injection, schedule: Q01DX001 (ip), vehicle: saline 103 % of control | dose: 10.0 mg/kg/injection, schedule: Q01DX009 (ip), vehicle: acetone 98 % of control | dose: 20.0 mg/kg/injection, schedule: Q01DX001 (ip), vehicle: saline 101 % of control | dose: 20.0 mg/kg/injection, schedule: Q01DX009 (ip), vehicle: acetone 110 % of control | dose: 40.0 mg/kg/injection, schedule: Q01DX001 (ip), vehicle: saline 101 % of control

O=C(Cc1ccccc1)CC(O)(C(F)(F)F)C(F)(F)F
inactive: [4] 110 % of control | [5] 100 % of control

CCCCCC(=O)NNc1ccccc1
inactive: dose: 50.0 mg/kg/injection, schedule: Q04DX002 (ip), vehicle: Klucel (hydroxypropylcellulose) (HPC) 104 % of control | [6] 104 % of control | [7] 111 % of control | [8] 104 % of control

COc1ccc(C2CCc3cc(OC)c(OC)cc3C2=O)cc1OC (stereo unspecified)
inactive: dose: 20.0 mg/kg/injection, schedule: Q01DX009 (ip), vehicle: saline with Tween-80 93 % of control | dose: 40.0 mg/kg/injection, schedule: Q01DX009 (ip), vehicle: saline with Tween-80 94 % of control | dose: 80.0 mg/kg/injection, schedule: Q01DX009 (ip), vehicle: saline with Tween-80 90 % of control | dose: 120.0 mg/kg/injection, schedule: Q01DX009 (ip), vehicle: saline with Tween-80 93 % of control | dose: 120.0 mg/kg/injection, schedule: Q01DX009 (ip), vehicle: saline 107 % of control | dose: 240.0 mg/kg/injection, schedule: Q01DX009 (ip), vehicle: saline with Tween-80 96 % of control | dose: 240.0 mg/kg/injection, schedule: Q01DX009 (ip), vehicle: saline 96 % of control | dose: 360.0 mg/kg/injection, schedule: Q01DX009 (ip), vehicle: saline 93 % of control | dose: 545.0 mg/kg/injection, schedule: Q01DX009 (ip), vehicle: saline 91 % of control

C=CC1CC1(C(=O)O)C(=O)O (stereo unspecified)
inactive: [4] 93 % of control | [9] 98 % of control | [5] 96 % of control | [10] 98 % of control | [11] 90 % of control | [12] 93 % of control

C[N+]1(Cc2ccccc2)CCC2(C(N)=O)CC1Cc1ccccc12 (stereo unspecified)
inactive: dose: 75.0 mg/kg/injection, schedule: Q01DX001 (ip), vehicle: other 105 % of control | dose: 150.0 mg/kg/injection, schedule: Q01DX001 (ip), vehicle: other 100 % of control | dose: 300.0 mg/kg/injection, schedule: Q01DX001 (ip), vehicle: other 93 % of control

O=c1c(Cl)c(C(Cl)(Cl)Cl)n(O)c2ccccc12
inactive: dose: 6.25 mg/kg/injection, schedule: Q01DX001 (ip), vehicle: Klucel (hydroxypropylcellulose) (HPC) 104 % of control | dose: 12.5 mg/kg/injection, schedule: Q01DX001 (ip), vehicle: Klucel (hydroxypropylcellulose) (HPC) 104 % of control | dose: 25.0 mg/kg/injection, schedule: Q01DX001 (ip), vehicle: Klucel (hydroxypropylcellulose) (HPC) 98 % of control | dose: 50.0 mg/kg/injection, schedule: Q01DX001 (ip), vehicle: Klucel (hydroxypropylcellulose) (HPC) 103 % of control | dose: 100.0 mg/kg/injection, schedule: Q01DX001 (ip), vehicle: Klucel (hydroxypropylcellulose) (HPC) 95 % of control

O=C(NO)Nc1ccc([N+](=O)[O-])cc1
inactive: dose: 100.0 mg/kg/injection, schedule: Q01DX001 (ip), vehicle: saline with Tween-80 97 % of control | [4] 93 % of control | dose: 200.0 mg/kg/injection, schedule: Q01DX001 (ip), vehicle: saline with Tween-80 90 % of control | [5] 89 % of control | dose: 400.0 mg/kg/injection, schedule: Q01DX001 (ip), vehicle: saline with Tween-80 99 % of control | [11] 98 % of control

CCOC(=O)CCCc1c[nH]c2ccccc12
inactive: [4] 101 % of control | [9] 95 % of control | [5] 101 % of control | [10] 100 % of control | [11] 102 % of control | [12] 95 % of control

O=C(Oc1c(Cl)cc(S(=O)(=O)F)cc1Cl)c1ccccc1Cl
inactive: [6] 92 % of control | [7] 89 % of control | [8] 89 % of control

CCC(=O)c1cc([N+](=O)[O-])ccc1NC(C)=O
inactive: [4] 97 % of control | [5] 94 % of control | [11] 94 % of control

CCCCC(O)(C(C)C)C(C)C
inactive: [1] 102 % of control | [2] 98 % of control | [3] 98 % of control

CCN(CC)CCN(C)CCN(CC)CC
inactive: dose: 50.0 mg/kg/injection, schedule: Q01DX009 (ip), vehicle: saline 91 % of control | dose: 100.0 mg/kg/injection, schedule: Q01DX009 (ip), vehicle: saline 102 % of control | dose: 100.0 mg/kg/injection, schedule: Q04DX003 (ip), vehicle: saline 93 % of control | dose: 200.0 mg/kg/injection, schedule: Q01DX009 (ip), vehicle: saline 101 % of control | dose: 200.0 mg/kg/injection, schedule: Q04DX003 (ip), vehicle: saline 98 % of control

c1ccc(-c2nc(Oc3ccc(Oc4nc(-c5ccccc5)nc(-c5ccccc5)n4)cc3)nc(-c3ccccc3)n2)cc1
inactive: dose: 25.6 mg/kg/injection, schedule: Q04DX002 (ip), vehicle: saline with Tween-80 91 % of control | dose: 64.0 mg/kg/injection, schedule: Q04DX002 (ip), vehicle: saline with Tween-80 97 % of control | dose: 160.0 mg/kg/injection, schedule: Q04DX002 (ip), vehicle: saline with Tween-80 87 % of control | [10] 86 % of control | dose: 400.0 mg/kg/injection, schedule: Q04DX002 (ip), vehicle: saline with Tween-80 97 % of control

N=Cc1c(O)n(-c2ccccc2)c(=O)n(-c2ccccc2)c1=O
inactive: [4] 102 % of control | [5] 104 % of control | [11] 93 % of control

Cc1cc(=O)[nH]c(NC(C)C(=O)O)n1 (stereo unspecified)
inactive: dose: 12.5 mg/kg/injection, schedule: Q04DX003 (ip), vehicle: saline 101 % of control | dose: 25.0 mg/kg/injection, schedule: Q04DX003 (ip), vehicle: saline 101 % of control | dose: 50.0 mg/kg/injection, schedule: Q04DX003 (ip), vehicle: saline 101 % of control
